From ChEMBL document CHEMBL5241074, “Dual-target compounds for Alzheimer's disease: Natural and synthetic AChE and BACE-1 dual-inhibitors and their structure-activity relationship (SAR)” (Eur J Med Chem, 2021) come the findings set out here.

Molecules are shown by their SMILES.

Assay [1] has as its target Acetylcholinesterase (Homo sapiens, UniProt P22303). Description: Inhibition of AChE (unknown origin).
Assay [2] deals with Beta-secretase 1 (Homo sapiens, UniProt P56817). Description: Inhibition of BACE1 (unknown origin).
Chain of Beta-secretase 1 (P56817 whole entry): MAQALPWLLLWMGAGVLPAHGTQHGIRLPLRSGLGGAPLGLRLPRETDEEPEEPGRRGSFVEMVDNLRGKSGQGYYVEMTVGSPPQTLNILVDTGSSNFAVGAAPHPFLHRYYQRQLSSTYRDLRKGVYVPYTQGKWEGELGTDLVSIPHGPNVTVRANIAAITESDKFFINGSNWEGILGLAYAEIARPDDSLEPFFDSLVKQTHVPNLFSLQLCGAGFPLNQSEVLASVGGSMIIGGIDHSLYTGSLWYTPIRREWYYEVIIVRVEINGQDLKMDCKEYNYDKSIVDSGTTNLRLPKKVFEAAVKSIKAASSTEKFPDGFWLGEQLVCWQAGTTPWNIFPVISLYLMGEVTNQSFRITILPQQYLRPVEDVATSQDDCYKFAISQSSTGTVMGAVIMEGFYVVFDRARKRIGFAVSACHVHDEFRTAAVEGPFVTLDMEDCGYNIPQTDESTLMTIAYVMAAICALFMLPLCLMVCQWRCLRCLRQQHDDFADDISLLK

Chain of Acetylcholinesterase (P22303 whole entry): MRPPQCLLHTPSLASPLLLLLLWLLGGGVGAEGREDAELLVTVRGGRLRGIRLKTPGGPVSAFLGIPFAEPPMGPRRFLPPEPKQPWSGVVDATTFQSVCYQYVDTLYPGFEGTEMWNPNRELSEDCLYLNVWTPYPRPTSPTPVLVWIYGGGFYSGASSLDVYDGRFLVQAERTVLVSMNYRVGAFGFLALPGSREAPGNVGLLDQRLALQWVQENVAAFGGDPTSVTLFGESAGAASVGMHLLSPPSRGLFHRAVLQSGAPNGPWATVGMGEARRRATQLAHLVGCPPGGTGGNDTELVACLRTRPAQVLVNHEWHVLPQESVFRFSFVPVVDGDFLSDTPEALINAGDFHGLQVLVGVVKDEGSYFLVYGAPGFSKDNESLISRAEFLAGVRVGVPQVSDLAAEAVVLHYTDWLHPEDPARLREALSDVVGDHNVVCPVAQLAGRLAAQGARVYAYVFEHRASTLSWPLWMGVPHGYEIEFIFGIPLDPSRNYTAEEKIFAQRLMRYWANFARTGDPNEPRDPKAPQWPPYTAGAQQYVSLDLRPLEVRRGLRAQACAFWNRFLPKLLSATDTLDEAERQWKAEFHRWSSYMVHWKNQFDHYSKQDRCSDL

Usually IC50 stands for the point on the concentration scale where inhibition reaches its midpoint. Lower therefore signals inhibition by little substance. Consider `COc1ccc(C(=O)N2Cc3ccc(N4C(=O)c5ccccc5C4=O)cc3CC2=O)cc1`, for which the IC50 in assay [1] is 81.8 nM; in assay [2], 1.69 nM. Consider `Cc1cccc(C(=O)N2Cc3ccc(N4C(=O)c5ccccc5C4=O)cc3CC2=O)c1`, for which the concentration for half-maximal inhibition (IC50) in assay [1] is 25.5 nM; in assay [2], 4.45 nM.

Consider `Oc1cc(O)cc(Oc2c(O)cc(O)c3c2Oc2c(cc(O)c(-c4c(O)cc5c(c4O)Oc4c(Oc6cc(O)cc(O)c6)c(O)cc(O)c4O5)c2O)O3)c1`, for which half-maximal inhibition in assay [1] (IC50) was put at 4590 nM. On to `O=c1c(/C=N/Nc2ccc(C(F)(F)F)cc2)coc2c1ccc1oc(-c3ccc(Cl)cc3)cc12`, for which the IC50 was 5400 nM in assay [1] and 13600 nM in assay [2].

For `CC(C)=CCCC1(C)C=Cc2c(ccc3cc(-c4cc(O)cc(O)c4CC=C(C)C)oc23)O1` (stereo unspecified), half-maximal inhibition in assay [1] (IC50) was put at 4610 nM.

For `COc1cc2c(cc1OC)CC(CC1CCN(CCCNc3c4c(nc5cc(Cl)ccc35)CC3C=C(C)CC4C3)CC1)C2` (single isomer, unassigned; (-)), the 50% inhibitory concentration (IC50) in assay [1] was 2.61 nM. As for `Cc1cc2c(c(C)c1CCO[C@@H]1O[C@H](CO)[C@@H](O)[C@H](O)[C@H]1O)C(=O)C(C)(C)[C@H]2O`, the results for the IC50 in assay [1] and in assay [2] were 27400 nM and 10700 nM, respectively.

Consider `COc1ccc(-c2oc3cc(Br)c(I)cc3c(=O)c2O)cc1`, for which, in assay [2], the IC50 is 15.7 nM.

Take `COc1cc2c(cc1OC)CC(CC1CCN(CCCNc3c4c(nc5cc(Cl)ccc35)CC3C=C(C)CC4C3)CC1)C2` (racemic): in assay [1], half-maximal inhibition (IC50) required 5.37 nM.

As for `COc1cc(/C=C/c2nnc(-c3ccc(Cl)cc3)o2)ccc1O`, the IC50 in assay [1] is 0.334 nM; in assay [2], 0.628 nM. In assay [1], `O=c1c(O)c(-c2ccc(O)c(O)c2)oc2cc(O)cc(O)c12` [QUERCETIN] displayed an IC50 of 2910 nM. For the molecule `C[C@@H]1O[C@@H](OC[C@H]2O[C@@H](Oc3c(-c4ccc(O)c(O)c4)oc4cc(O)cc(O)c4c3=O)[C@H](O)[C@@H](O)[C@@H]2O)[C@H](O)[C@H](O)[C@H]1O` [RUTIN], the IC50 in assay [1] came to 113000 nM; in assay [2] it was 3.8 nM. The molecule `COc1cc(O)cc(-c2cc3ccc(O)c(C/C=C(\C)CCC=C(C)C)c3o2)c1CC=C(C)C` gave a half-inhibitory concentration (IC50) in assay [1] of over 200000 nM.

Consider `O=c1c(/C=N/Nc2ccc(C(F)(F)F)cc2)coc2cc3oc(-c4cccc(F)c4)cc3cc12`, for which the values for the IC50 in assay [1] and in assay [2] were 7600 nM and 17300 nM, respectively. For `COc1ccccc1C(=O)N1Cc2ccc(N3C(=O)c4ccccc4C3=O)cc2CC1=O`, in that order: 81.7 nM and 2.96 nM. For `CC12CC(c3c(O)cc(-c4cc5ccc(O)cc5o4)cc3O)CC3c4ccc(O)cc4OC31C2` (stereo unspecified), in that order: over 200000 nM and 1040 nM. `O=C(/C=C/c1ccc(O)c(O)c1)O[C@@H]1[C@H](O)C[C@@](O)(C(=O)O)C[C@H]1OC(=O)/C=C/c1ccc(O)c(O)c1`: the IC50 in assay [1] amounted to 2140 nM; in assay [2], 3310 nM.

`COc1cc(/C=C/c2nnc(-c3ccc(F)cc3F)o2)ccc1O`: the IC50 in assay [1] stood at 0.19 nM; in assay [2] it was 0.624 nM. As to `O=C(/C=C/c1ccc(F)cc1)c1cc(I)c(Br)cc1O`, the figures for the half-inhibitory concentration (IC50) in assay [1] and in assay [2] were 11 nM and 4.7 nM, respectively. `CCC1=CC2Cc3nc4cc(Cl)ccc4c(NCCCN4CCC(CC5Cc6cc(OC)c(OC)cc6C5)CC4)c3C(C1)C2` (stereo in doubt; (-)-36b): in assay [1], the IC50 amounted to 3.85 nM. `CC(C)=CCC/C(C)=C/CC/C(C)=C\Cc1c(O)cc(O)c(CC=C(C)C)c1-c1cc2ccc(O)cc2o1`: the IC50 in assay [1] came out at 13900 nM; in assay [2], 2030 nM.

Turning to `O=c1c(O)c(-c2ccc(F)cc2)oc2cc(F)c(I)cc12`, the IC50 in assay [1] was determined as 3.23 nM; in assay [2], 32.2 nM. On to `CCC1=CC2Cc3nc4cc(Cl)ccc4c(NCCCN4CCC(CC5Cc6cc(OC)c(OC)cc6C5)CC4)c3C(C1)C2` (racemic), for which, in assay [1], the IC50 came out at 6.32 nM. On to `C/C(=C\C1=CCN(C(=O)CCc2ccccc2)C(=O)C1)N1C(=O)c2ccccc2C1=O`, for which the IC50 in assay [1] amounted to 55.3 nM; in assay [2], 2.07 nM. The matching figures for `O=c1c(/C=N/Nc2ccc(C(F)(F)F)cc2)coc2c1ccc1oc(-c3cccc(F)c3)cc12`: 10400 nM and 15800 nM. Regarding `COc1ccccc1NCC1CCN(Cc2ccccc2)CC1`, the values for the IC50 in assay [1] and in assay [2] were 157 nM and 277 nM, respectively.

As for `COc1cc(O)c(C(=O)/C=C/c2ccc(F)cc2)cc1I`, the results for the IC50 in assay [1] and in assay [2] were 9.38 nM and 25.1 nM, respectively. The matching figures for `O=C1Cc2cc(N3C(=O)c4ccccc4C3=O)ccc2CN1C(=O)c1ccccc1`: 65.6 nM and 5.87 nM. The matching figures for `COc1ccccc1NC(=O)C1CCN(C(=O)c2ccccc2)CC1`: 8.46 nM and 18.5 nM. For `COc1ccc(NCC2CCN(Cc3ccccc3)CC2)cc1OC`, in that order: 145 nM and 243 nM. In assay [2], `OCCc1ccc(O)c(O)c1` [HYDROXYTYROSOL] showed an IC50 of 35 nM. Turning to `Cc1cc2c(c(C)c1CCO[C@@H]1O[C@H](CO)[C@@H](O)[C@H](O)[C@H]1O)C(=O)[C@@H](C)[C@H]2O`, the IC50 in assay [1] was found to be 9170 nM. For the molecule `CC(C)=CCC/C(C)=C/Cc1c(O)ccc2cc(-c3cc(O)cc(O)c3CC=C(C)C)oc12` [MULBERROFURAN D], the figures for the IC50 in assay [1] and in assay [2] were 23000 nM and 3740 nM, respectively. For `O=c1c(O)c(-c2ccc(Cl)cc2)oc2cc(F)c(I)cc12`, in that order: 3.45 nM and 16.7 nM.

Turning to `COc1cc(/C=C/c2nnc(-c3ccc(C(F)(F)F)cc3)o2)ccc1O`, the half-maximal inhibitory concentration (IC50) in assay [1] came to 0.068 nM; in assay [2], 0.255 nM. The molecule `C[C@@H]1O[C@@H](O[C@@H]2[C@@H](O)[C@H](OCCc3ccc(O)c(O)c3)O[C@H](CO)[C@H]2OC(=O)/C=C/c2ccc(O)c(O)c2)[C@H](O)[C@H](O)[C@H]1O` [ACETOSIDE] registered an IC50 in assay [2] of 6.3 nM. Take `COc1ccc(-c2cc3cc4c(=O)c(/C=N/Nc5ccc(C(F)(F)F)cc5)coc4cc3o2)cc1`: the 50% inhibitory concentration (IC50) in assay [1] turned out to be 5400 nM; in assay [2], 25300 nM. For `COc1ccc(NC(=O)C2CCN(C(=O)c3ccccc3)CC2)cc1`, in that order: 9.78 nM and 19.1 nM. As to `COc1ccc(/C=C/C(=O)c2cc(I)c(OC)cc2O)cc1`, the IC50 in assay [1] was found to be 11 nM; in assay [2] it was 70.8 nM. For `O=c1c(/C=N/Nc2ccc(C(F)(F)F)cc2)coc2cc3oc(-c4cccc(Cl)c4)cc3cc12`, the IC50 in assay [1] came to 18300 nM; in assay [2] it was 32800 nM.

In turn, `C/C=C1/C(O[C@@H]2O[C@H](CO)[C@@H](O)[C@H](O)[C@H]2O)OC=C(C(=O)OC)C1CC(=O)OCCc1ccc(O)c(O)c1` (stereo partly specified) returned an IC50 in assay [2] of 2760 nM.

As for `COc1ccc(NCC2CCN(Cc3ccccc3)CC2)cc1`, the IC50 in assay [1] worked out at 165 nM; in assay [2], 253 nM.

As for `COc1ccc(-c2oc3cc(OC)c(I)cc3c(=O)c2O)cc1`, the IC50 in assay [1] was 7.19 nM; in assay [2], 22.4 nM. `COc1ccc(/C=C/C(=O)c2cc(I)c(Cl)cc2O)cc1`: the IC50 in assay [1] is 11.7 nM; in assay [2], 13.8 nM. For `COc1cc(/C=C/c2nnc(-c3ccc(Cl)cc3Cl)o2)ccc1O`, in that order: 0.22 nM and 0.864 nM. The matching figures for `Cc1cc2c(c(C)c1CCO[C@@H]1O[C@H](CO)[C@@H](O)[C@H](O)[C@H]1O)C(=O)[C@H](C)C2`: 2550 nM and 18000 nM. As to `COc1cc(/C=C/c2nnc(-c3ccc(OC(F)(F)F)cc3)o2)ccc1O`, the IC50 in assay [1] amounted to 0.092 nM; in assay [2], 0.211 nM.
